Reference: patent US20260137652A1, “Composition Comprising Non-Phosphorylated Tryptamine” (SINTALICA S.R.L., priority 2022, published 2026)

Experiments:
paw tissues = experiment: Histology (H&E staining) of paw tissues after CAR injection; format: in vivo, Sprague-Dawley rats; conditions: for inflammatory cell infiltration and edema / histological score (H&E): rat paw tissues 6 h after CAR injection
Description: (§1) The biological effect of the complex, in comparison with the psilocin solution, against inflammation was tested by their administration to 8-12 weeks old male rats.
(§2) A composition comprising complex according to example 1, wherein the ratio of β-carotene to 2-hydroxypropylether β-cyclodextrin was 1:5, was used. Complexes (psilocin, β-carotene, ascorbic acid with ratio 1:1:1 and 2-hydroxypropylether β-cyclodextrin) containing two different concentrations of psilocin have been tested: • a complex containing 3 mg of psilocin, • a complex containing 10 mg of psilocin.
(§3) The study was performed using male Sprague-Dawley rats (200-250 g; Envigo, Milan, Italy). Food and water were accessible ad libitum. Rats were concurrently subjected to a singular subplantar injection of CAR (100 pL of saline solution containing 1% CAR). Paw edema was measured with a plethysmometer (Ugo Basile, Comerio, Varese, Italy) (Salvemini, D.; Wang, Z.-Q.; Wyatt, P. S.; Bourdon, D. M.; Marino, M. H.; Manning, P. T.; Currie, M. G., “Nitric oxide: A key mediator in the early and late phase of carrageenan-induced rat paw inflammation”, Br. J. Pharmacol. 1996, 118, 829-838) prior to CAR injection and every hour for 6 h. Edema was expressed as the increase in paw volume (mL) after CAR injection relative to the pre-injection value for all animals. Scores were expressed as paw volume difference (mL).
Paw tissues were collected 6 h after CAR injection. Samples were fixed in 10% formaldehyde solution in phosphate buffer saline (PBS) at room temperature for 24 h, dehydrated by graded series of ethanol and at the list embedded in Paraplast (Sherwood Medical, Mahwah, NJ, USA). Sections of 7-pm thickness were cut with a microtome, deparaffinized with xylene and stained with hematoxylin and eosin (H&E). All sections were examined using an Axiovision Zeiss (Milan, Italy) microscope by two investigators blinded to the treatment conditions. […]
All values are expressed as mean±standard deviation (SD) of N=10 observations. […] Data were analyzed by one-way ANOVA followed by a Bonferroni post-hoc test for multiple comparisons. […]

mechanical allodynia = experiment: Pain behavior: mechanical allodynia, Von Frey test after CAR injection; format: in vivo, Sprague-Dawley rats; conditions: rats, 1-6 hours post CAR injection, as compared to CAR group
CAR-induced paw edema = experiment: CAR-induced paw edema, paw volume by plethysmometer; format: in vivo, Sprague-Dawley rats; conditions: rats, measured every hour for 6 h after CAR, vs CAR group
Description: as §1, §2, §3
All values are expressed as mean±standard deviation (SD) of N=10 observations. For the in-vivo studies, N represents the number of animals studied. Data were analyzed by one-way ANOVA followed by a Bonferroni post-hoc test for multiple comparisons. A p-value less than 0.05 will be considered significant. #p<0.05 vs. CTR, *p<0.05 vs. CAR, ##p<0.01 vs. CTR, **p<0.01 vs. CAR, ###p<0.001 vs. CTR, ***p<0.001 vs. CAR, °p<0.05 vs. 3 m/Kg, § p<0.05 vs. 10 mg/Kg, °°p<0.01 vs. 3 mg/Kg, §§ p<0.01 vs. 10 mg/Kg, 000 p<0.001 vs. 3 mg/Kg, §§§ p<0.001 vs. 10 mg/Kg.

MPO = MPO analysis (marker of neutrophil infiltration) after CAR injection; format: in vivo, Sprague-Dawley rats; conditions: rats; for MPO activity: vs CAR group
Description: as §1, §2, §3
The activity of MPO (myeloperoxidase is an enzyme released by neutrophils and used as a marker of neutrophil infiltration) was assessed as previously described (Mullane, K. M.; Kraemer, R.; Smith, B. “Myeloperoxidase activity as a quantitative assessment of neutrophil infiltration into ischemic myocardium.” J. Pharmacol. Methods 1985, 14, 157-167). The rate of change in absorbance was calculated spectrophotometrically at 650 nm. MPO activity was measured in U per gram weight of wet tissue and was quantified as the quantity of enzyme degrading […] of peroxide 1 min at 37° C.
All values are expressed as mean±standard deviation (SD) of N=10 observations. For the in-vivo studies, N represents the number of animals studied. […]

[1] = Stability test by NMR spectroscopy; format: physicochemical; conditions: Sample A: 22° C. with no light irradiation
Description: The same specimens were analyzed also by NMR Spectroscopy using Varian 500 MHz spectrometer equipped with a OneNMR probe.
Samples were recorded using a PRESAT pulse sequence suppressing the signal of H2O and EtOH acquiring 128 scans for each spectrum. H2O (4.64 ppm) was used as reference line.
For the NMR analysis, all samples were treated as follow: 530 pL were poured into NMR tube (5 mm i.d.) then coaxial tube was filled with D2O to lock the solvent frequency.

[2] = Stability test of psilocin for 24 hours: darkening and psilocin concentration by UHPLC-MS; format: physicochemical
Description: The inclusion complex obtained by the resuspension of the freeze-dried complex of (β-carotene and 2-hydroxypropylether p-cyclodextrin in the ratio 1:5 with 3 mg of psilocin dissolved in 1 mL of H2O:EtOH (8:2) solution, was tested to evaluate the inclusion complex stability.
The complex stability was evaluated for 24 hours, under different environmental conditions: • Sample A) 22° C. with no light irradiation • Sample B) 30° C. with no light irradiation • Sample C) 22° C. under UV irradiation (using an UVA lamp A=365 nm) • Sample D) Freeze-dried for 30 days • Sample E) 30° C. under UV irradiation (using an UVA lamp A=365 nm)
All the complex stability tests were compared to a “blank” psilocin solution in H2O:EtOH (8:2).
For evaluating psilocin stability chromatographic analyses were performed using a Nexera X2 UHPLC system coupled to a LCMS-8060 mass spectrometer (Shimadzu, Duisburg, Germany). Data acquisition and processing was performed using the LabSolutions software (version 5.95 Shimadzu). The separation of the various tryptamines was achieved by using an Ascentis Express 90 HILIC column (150×2.1 mm, 2.7 pm) (Merck Life Science) and a mobile phase composed of ammonium formate 0.1 M in water as solvent A, and acetonitrile as solvent B. The gradient program was as follows: 0 min, 90% B; 3 min, 75% B; 10 min, 20% B; 13 min 20% B; 15 min 90% B. The flow rate was 0.5 mL min−1; the column oven was set at 40° C. and the injection volume was 1 pL. Mobile phases were filtered through a 0.45 µm membrane.
The synthetic psilocin was weighed in a volumetric flask and diluted with water: ethanol (8:2) at a concentration of 3000 ppm. Then, it was serially diluted to get a final concentration of 0.10 ppm and analyzed according to the above reported method, in order to verify the stability for 24 hours. At time 0, it was 0.11 ppm. After 24 hours the concentration decreased to 0.04 ppm, showing a concentration loss of 60%.

[3] = Sample B: 30° C. with no light irradiation, 24 hours

CN(C)CCc1c[nH]c2cccc(O)c12 [psilocin, 4-hydroxy-N,N-dimethyltryptamine]
inflammatory cell infiltration and edema / histological score (H&E) (paw tissues; 3 mg/Kg): meaningfully decreased
inflammatory cell infiltration and edema / histological score (H&E) (paw tissues; 10 mg/Kg): meaningfully decreased
histological anti-inflammatory effect of psilocin as compared to the complex administration (paw tissues; all doses (3 and 10 mg/Kg), rats): better anti-inflammatory effect
paw-withdrawal threshold (Von Frey) (mechanical allodynia; 3 mg/Kg): significantly increased
paw-withdrawal threshold (Von Frey) (mechanical allodynia; 10 mg/Kg): significantly increased
CAR-induced paw edema (paw volume) (CAR-induced paw edema; 3 mg/Kg): reduction of paw volume
CAR-induced paw edema (paw volume) (CAR-induced paw edema; 3 mg/Kg, listed as Psilocin): significantly reduced
CAR-induced paw edema (paw volume) (CAR-induced paw edema; 10 mg/Kg): reduction of paw volume
CAR-induced paw edema (paw volume) (CAR-induced paw edema; 10 mg/Kg, listed as Psilocin): significantly reduced
MPO activity (MPO; 3 mg/Kg): reduced the MPO activity
MPO activity (MPO; 10 mg/Kg): reduced the MPO activity
MPO activity effect of psilocin as compared to the complex administration (MPO; all doses (3 and 10 mg/Kg)): significant effect
degradation product by NMR compared with the other solutions [1]: less degradation product
darkening ([2]; Sample A: 22° C. with no light irradiation, 24 h): started the darkening process since the first 2 hours of storing
psilocin concentration after 24 hours ([2]; Sample A: 22° C. with no light irradiation, H2O:EtOH (8:2), after 24 hours): 0.04 ppm
psilocin concentration at time 0 ([2]; Sample A: 22° C. with no light irradiation, H2O:EtOH (8:2), time 0): 0.11 ppm
loss of psilocin concentration ([2]; Sample A: 22° C. with no light irradiation, after 24 hours): 60%
psilocin concentration trend ([2]; Sample A: 22° C. with no light irradiation, time 0 vs after 24 hours): decreased
darkening [2, 3]: darkening process was observed
psilocin concentration trend [2, 3]: decreased during 24 hours
darkening ([2]; Sample C: 22° C. under UV irradiation (365 nm), 24 h): started the darkening process since the first 2 hours of storing
psilocin concentration trend ([2]; Sample C: 22° C. under UV irradiation (365 nm), 24 hours): decreasing during 24 hours
darkening ([2]; Sample D: freeze-dried, redissolved 30 days after freeze-drying, ambient temperature, 24 h): started the darkening process since the first 2 hours of storing
darkening ([2]; Sample E: 30° C. under UV irradiation (365 nm), 24 h): Darkening was observed
psilocin concentration trend ([2]; Sample E: 30° C. under UV irradiation (365 nm), 24 hours): decreased during 24 hours
